Measured values as given in PubChem BioAssay (NCI).
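The compound was tested at five concentrations on cells cultured in 96-well plates, with a 48-hour exposure period. TGI denotes the concentration required for complete inhibition of growth.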

How the values were obtained:
Assay in all cases: NCI tumour cell line growth inhibition, 48 h
SK-MEL-5 melanoma = test system: SK-MEL-5 melanoma
OVCAR-8 ovarian = test system: OVCAR-8 ovarian
SK-MEL-28 melanoma = test system: SK-MEL-28 melanoma
SF-539 CNS = test system: SF-539 CNS
OVCAR-5 ovarian = test system: OVCAR-5 ovarian
OVCAR-3 ovarian = test system: OVCAR-3 ovarian
HOP-92 NSCLC = test system: HOP-92 NSCLC
MALME-3M melanoma = test system: MALME-3M melanoma
NCI-H226 lung = test system: NCI-H226 lung
NCI-H522 lung = test system: NCI-H522 lung
HCC-2998 colon = test system: HCC-2998 colon
SF-268 CNS = test system: SF-268 CNS
NCI/ADR-RES ovarian = test system: NCI/ADR-RES ovarian
MDA-MB-231 breast = test system: MDA-MB-231 breast
MDA-N = test system: MDA-N

SMILES	TGI (SK-MEL-5 melanoma) [µM]	TGI (OVCAR-8 ovarian) [µM]	TGI (SK-MEL-28 melanoma) [µM]	TGI (SF-539 CNS) [µM]	TGI (OVCAR-5 ovarian) [µM]	TGI (OVCAR-3 ovarian) [µM]	TGI (HOP-92 NSCLC) [µM]	TGI (MALME-3M melanoma) [µM]	TGI (NCI-H226 lung) [µM]	TGI (NCI-H522 lung) [µM]	TGI (HCC-2998 colon) [µM]	TGI (SF-268 CNS) [µM]	TGI (NCI/ADR-RES ovarian) [µM]	TGI (MDA-MB-231 breast) [µM]	TGI (MDA-N) [µM]
COc1cccc2c1c1ccc3c(c1n2C)C(=O)C=CC3=O	> 100	29.7	33.4	30.9	> 100	30.5	25.9	27.1	> 100	14.7	> 100	33.6	–	–	–
COc1cc2c(cc1OC)OC(c1c(OC)ccc(OC)c1O)CC2 (stereo not drawn)	> 100	> 100	> 100	> 100	> 100	> 100	> 100	> 100	> 100	–	> 100	> 100	> 100	> 100	–
CCn1cc2c(=O)n3ncn(-c4ccc(Br)cc4)c3nc2n1	> 100	> 100	> 100	–	> 100	> 100	–	> 100	> 100	> 100	> 100	> 100	> 100	> 100	> 100
FC1(F)[Se]C2C3CCC(C3)C2C1(F)F (stereo not drawn)	> 100	> 100	> 100	> 100	> 100	> 100	–	> 100	> 100	> 100	> 100	> 100	> 100	> 100	> 100
Cc1ccc(O)c(C(c2cccc(C(c3cc(C)ccc3O)c3cc(C)ccc3O)c2)c2cc(C)ccc2O)c1	3.93	3.87	3.46	3.35	3.15	4.35	–	3.77	3.31	3.03	3.48	3.33	7.66	2.83	3.35
CSC1=N/C(=C\c2ccc(Cl)cc2)C(=O)N1CN1CCCCC1	> 100	> 100	> 100	–	> 100	> 100	–	91.7	> 100	> 100	–	> 100	> 100	> 100	> 100
OC12c3ccccc3C1CCCCC2N1CCCC1 (stereo not drawn)	> 100	> 100	> 100	–	–	–	–	> 100	> 100	> 100	–	> 100	–	–	–
O=c1oc2ccc3ccccc3c2cc1-c1nnc(Nc2ccccc2)s1	–	–	–	–	> 100	31.4	–	–	–	69.3	> 100	> 100	> 100	35.1	–
CN=C1Nc2ccccc2C(=O)N2CSCC12 (stereo not drawn)	> 100	> 100	> 100	–	> 100	> 100	–	> 100	> 100	> 100	> 100	> 100	> 100	> 100	> 100
COc1ccc(CNc2cnc3cc(N)ccc3n2)cc1	> 100	> 100	> 100	> 100	> 100	> 100	–	> 100	> 100	> 100	> 100	> 100	–	–	–
N#Cc1ccc(C(O)C(F)(F)c2nc3ccccc3o2)cc1 (stereo not drawn)	> 100	> 100	> 100	> 100	–	–	> 100	–	> 100	–	> 100	> 100	> 100	> 100	–
COc1ccccc1Nc1nc2c([nH]1)c(=O)n(C)c(=O)n2C	> 10	> 10	> 10	–	–	–	> 10	> 10	–	–	> 10	> 10	–	> 10	> 10
COc1ccc(S(=O)(=O)N2C(=O)CCC2C(=O)NC(N)=O)cc1 (stereo not drawn)	> 100	> 100	> 100	> 100	> 100	> 100	> 100	> 100	> 100	> 100	–	–	> 100	> 100	> 100
O=C1C2C(C(=O)N1c1ccccc1)C1(c3ccccc3)CCC2(C(=O)c2ccccc2)O1 (stereo not drawn)	> 10	> 10	> 10	> 10	> 10	> 10	–	> 10	–	> 10	> 10	> 10	> 10	> 10	> 10
O=c1nc2n3c4c(cccc4nc-2c(=O)[nH]1)CCC3	> 100	> 100	> 100	> 100	> 100	> 100	–	39.2	> 100	71.4	> 100	> 100	> 100	> 100	> 100
Cc1c(C)c2ccc(OCC(O)COC(C)C)c(C)c2oc1=O (stereo not drawn)	30.2	> 100	> 100	–	> 100	> 100	> 100	30.3	–	45.8	43.4	> 100	> 100	–	33
CC(=O)c1nc2ccccc2n1C(C)C(=O)c1ccccc1 (stereo not drawn)	–	> 100	> 100	> 100	–	> 100	> 100	> 100	> 100	> 100	–	> 100	> 100	> 100	> 100
O=C(Nc1ccc(C(F)(F)F)cc1)NC(F)(F)F	> 100	> 100	> 100	> 100	> 100	–	–	–	–	–	> 100	> 100	> 100	–	> 100
